Data set [1] can be described thus: Body weight (growth inhibition) of DBA/1 mice. In kind it is in vivo. The following applies: 0.0625 mg kg^-1 daily, 2 weeks. On the procedure:
Figure 5 Examination of side effects of VSGC12 and FF at the effective dose. (a) Body weight of DBA/1 mice treated with the indicated daily dose of steroids for 2 weeks. Mice body weight was measured at day 0, 7 and 14. (b) Insulin-tolerance test of mice treated with the indicated daily doses of steroids for 7 days. Glucose level was measured at day 7 at various time points before and after insulin injection. Data were plotted as percent of the glucose level of time 0. (c) Plasma insulin levels of mice treated with the indicated daily doses of steroid for 7 days. (d) Spleen size and weight for mice treated with the indicated daily doses of steroid for 2 weeks. (e) Cortical bone thickness of femurs of mice treated with the indicated daily doses of steroid for 2 weeks. (f) Bone stiffness of femurs of mice treated with the indicated daily doses of steroid for 2 weeks. Mouse strain: DBA/1. Each treatment n=5, error bars indicate s.e.m., *P<0.05; **P<0.01; ***P<0.001.

Data set [2] has as its target T1, GR (Homo sapiens, UniProt P04150).
T1 construct: expressed in transfected cells; host or cells: AD293
T1 sequence (P04150 1-777): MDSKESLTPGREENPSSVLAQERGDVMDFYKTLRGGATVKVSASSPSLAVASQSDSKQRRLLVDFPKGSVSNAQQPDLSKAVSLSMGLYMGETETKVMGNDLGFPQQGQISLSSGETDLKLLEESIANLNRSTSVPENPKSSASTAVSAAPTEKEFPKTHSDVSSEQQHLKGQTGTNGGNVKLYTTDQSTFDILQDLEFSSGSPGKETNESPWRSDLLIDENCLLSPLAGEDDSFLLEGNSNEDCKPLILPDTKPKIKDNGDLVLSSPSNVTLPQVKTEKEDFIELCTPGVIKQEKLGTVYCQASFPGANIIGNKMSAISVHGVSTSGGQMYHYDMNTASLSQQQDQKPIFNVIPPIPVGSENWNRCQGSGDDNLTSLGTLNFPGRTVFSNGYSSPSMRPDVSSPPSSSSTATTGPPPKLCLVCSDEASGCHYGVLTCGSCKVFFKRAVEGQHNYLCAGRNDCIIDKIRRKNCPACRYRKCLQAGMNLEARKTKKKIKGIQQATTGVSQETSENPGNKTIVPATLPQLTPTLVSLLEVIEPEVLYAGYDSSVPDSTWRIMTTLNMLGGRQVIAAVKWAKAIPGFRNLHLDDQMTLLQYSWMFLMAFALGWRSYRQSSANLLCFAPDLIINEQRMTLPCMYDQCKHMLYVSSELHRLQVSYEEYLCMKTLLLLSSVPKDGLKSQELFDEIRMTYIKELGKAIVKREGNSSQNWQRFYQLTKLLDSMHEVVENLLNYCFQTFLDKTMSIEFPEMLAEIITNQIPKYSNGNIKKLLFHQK
As to the kind of experiment: AP-1-Luc repression reporter assay in AD293 cells. In kind it is cell-based. The following applies: AP-1 reporter, PMA 0.6 ng ml^-1. On the procedure:
(§1) Similar to previous reports, for induction 100 ng pHHLuc (MMTV-Luc) plasmid, 0.1 ng pRShGR together with 5 ng phRGtkRenilla were transfected by X-tremeGENE 9 (Roche) into AD293 cells per well in 24-well plate. For transrepression, 10 ng AP-1-Luc or 10ng pNF-κB-luc, 100 ng pRShGR and 5 ng phRGtkRenilla were transfected into AD293 cells per well. We used the same transfection protocol for the MR and PR assays, except of the use of 0.1 ng MR or PR plasmid to substitute GR. One day after transfection, for induction, cells were directly treated by steroids for 16 h; for repression, cells were treated with either PMA at 0.6 ng ml^–1 (for AP-1 reporter) or TNFα at 2 ng ml^–1 (for NF-κB reporter), together with various steroids. Cells were collected by addition of 1× Passive Lysis Buffer (Promega, Madison, WI, USA), and luciferase activity was assayed by the Dual-Glo Luciferase system (Promega). Data were plotted as firefly luciferase activity normalized to Renilla luciferase activity in Relative Luciferase Units.

For data set [3], the target named is T2, MR (Homo sapiens, UniProt P08235).
T2 construct: expressed in transfected cells; host or cells: AD293
T2 sequence (P08235 1-984): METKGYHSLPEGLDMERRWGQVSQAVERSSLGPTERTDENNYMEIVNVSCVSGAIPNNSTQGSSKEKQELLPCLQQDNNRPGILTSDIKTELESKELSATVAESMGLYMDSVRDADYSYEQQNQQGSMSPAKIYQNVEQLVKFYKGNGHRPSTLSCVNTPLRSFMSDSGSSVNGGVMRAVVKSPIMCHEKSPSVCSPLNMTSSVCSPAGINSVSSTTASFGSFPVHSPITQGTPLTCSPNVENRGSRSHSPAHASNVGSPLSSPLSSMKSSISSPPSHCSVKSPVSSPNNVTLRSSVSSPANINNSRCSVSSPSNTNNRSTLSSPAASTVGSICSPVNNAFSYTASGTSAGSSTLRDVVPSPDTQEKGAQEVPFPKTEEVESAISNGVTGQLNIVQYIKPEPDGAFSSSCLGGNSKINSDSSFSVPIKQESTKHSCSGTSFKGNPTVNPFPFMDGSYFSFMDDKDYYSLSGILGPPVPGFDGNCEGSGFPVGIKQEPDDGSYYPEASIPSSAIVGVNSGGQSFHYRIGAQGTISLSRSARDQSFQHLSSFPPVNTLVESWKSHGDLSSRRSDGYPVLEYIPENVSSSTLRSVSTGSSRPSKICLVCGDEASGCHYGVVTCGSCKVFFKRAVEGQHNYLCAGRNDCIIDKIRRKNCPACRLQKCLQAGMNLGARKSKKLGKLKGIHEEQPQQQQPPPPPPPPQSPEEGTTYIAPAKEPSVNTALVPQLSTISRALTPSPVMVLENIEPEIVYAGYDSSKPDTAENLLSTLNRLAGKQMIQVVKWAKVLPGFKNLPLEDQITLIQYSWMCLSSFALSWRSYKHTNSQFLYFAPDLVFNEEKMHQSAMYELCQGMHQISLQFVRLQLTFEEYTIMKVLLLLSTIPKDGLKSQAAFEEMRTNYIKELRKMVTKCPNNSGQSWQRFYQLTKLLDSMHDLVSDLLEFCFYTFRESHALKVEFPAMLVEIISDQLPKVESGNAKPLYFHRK
As to the kind of experiment: MR reporter assay (off-target activity). Type of data set: cell-based. The following applies: steroid 1 μM; percent of 1 μM corticosterone. On the procedure: as §1

For data set [4], the target named is T1, GR. As to the kind of experiment: NF-κB-Luc repression reporter assay in AD293 cells. Type of data set: cell-based. The following applies: TNFα 2 ng ml^-1. On the procedure: as §1
Error bars indicate SD, n=3.

Data set [5] deals with T1, GR. As to the kind of experiment: MMTV-Luc induction reporter assay in AD293 cells. Type of data set: cell-based. The following applies: 16 h. On the procedure:
as §1

As to `CON(C)C(=O)C1(OC(=O)c2ccco2)C(C)CC2C3CC(F)C4=Cc5c(cnn5-c5ccccc5)CC4(C)C3(F)C(O)CC21C` (centres unmarked) [VSGC12], the “growth inhibition (body weight)” value in data set [1] is given as “did not cause a significant growth inhibition”. In addition, the IC50 was determined as 0.02 nM in data set [2] and 0.08 nM in data set [4]. In data set [3], the MR activity entry is “higher MR activity than VSG22 and FP, but a lower activity than MF and a similar activity (difference not statistically significant) as FF”. This molecule yielded an EC50 in data set [5] of 0.51 nM.

The values above are taken from publication PMC4822341 (Cell Discovery, 2015).
